The values below come from US6906203B1, “Substituted 4H-chromene and analogs as activators of caspases and inducers of apoptosis and the use thereof” (Cytovia, Inc., priority 1999, dated 2005).

Assay [1] has as its system T-47D cells. Put plainly: Inhibition of cell proliferation (GI50), CellTiter 96 AQUEOUS One, T-47D. It is filed as cell-based. Conditions: Homo sapiens, T47D, 48 h. On the procedure: (§1) T-47D and ZR-75-1 cells were grown and harvested as in Example 148. An aliquot of 90 μl of cells ([…] cells/ml) was added to a well of a 96-well microtiter plate containing 10 μl of a 10% DMSO in RPMI-1640 media solution containing 1 nM to 100 μM of 2-amino-3-cyano-7-dimethylamino-4-(3-methoxy-4,5-methylenedioxyphenyl)-4H-chromene (Example 19) or other test compound (0.1 nM to 10 μM final). An aliquot of 90 μl of cells was added to a well of a 96-well microtiter plate containing 10 μl of a 10% DMSO in RPMI-1640 media solution without compound as the control sample for maximal cell proliferation (Amax). The samples were mixed by agitation and then incubated at 37° C. for 48 h in a 5% CO2-95% humidity incubator. […] Using an absorbance plate reader (Model 1420 Wallac Instruments), an initial reading (T=0) was made approximately 1-2 min after addition of the solution, employing absorbance at 490 nm. This determines the possible background absorbance of the test compounds. No absorbance for 2-amino-3-cyano-7-dimethylamino-4-(3-methoxy-4,5-methylenedioxyphenyl)-4H-chromene or its analogs was found at 490 nm. […]
(§2) The samples were mixed by agitation and then incubated at 37° C. for 0.5 h in a 5% CO2-95% humidity incubator. […] Absorbance was read as above, (AT=0) defining absorbance for initial cell number used as baseline in GI50 determinations.

The subject of assay [2] is ZR-75-1 cells. Put plainly: Inhibition of cell proliferation (GI50), CellTiter 96 AQUEOUS One, ZR-75-1. It is filed as cell-based. As to conditions: Homo sapiens, ZR-75-1, 48 h. The procedure:
as §1, §2

For assay [3], the system named is T-47D cells. The assay is described as follows: Caspase cascade activation assay (N-(Ac-DEVD)-N'-ethoxycarbonyl-R110 fluorogenic substrate) in T-47D. Conditions: 24 h incubation. The assay is classed as cell-based, Human. The procedure: (§3) Human breast cancer cell lines T47D and ZR-75-1 were grown according to media component mixtures designated by American Type Culture Collection +10% FCS (Life Technologies, Inc.), in a 5% CO2-95% humidity incubator at 37° C. T-47D and ZR-75-1 cells were maintained at a cell density between 30 and 80% confluency at a cell density of 0.1 to 0.6×10^6 cells/ml. Cells were harvested at 600×g and resuspended at 0.65×10^6 cells/ml into appropriate media +10% FCS . […] An aliquot of 45 μl of cells was added to a well of a 96-well microtiter plate containing 5 μl of a 10% DMSO in RPMI-1640 media solution without test compound as the control sample. The samples were mixed by agitation and then incubated at 37° C. for 24 h in a 5% CO2-95% humidity incubator. After incubation, the samples were removed from the incubator and 50 μl of a solution containing 20 μM of N-(Ac-DEVD)-N′-ethoxycarbonyl-R110 (SEQ ID NO: 1) fluorogenic substrate (Cytovia, Inc.; WO99/18856), 20% sucrose (Sigma), 20 mM DTT (Sigma), 200 mM NaCl (Sigma), 40 mM Na PIPES buffer pH 7.2, and 500 μg/ml lysolecithin (Calbiochem) was added. The samples were mixed by agitation and incubated at room temperature. Using a fluorescent plate reader (Model 1420 Wallac Instruments), an initial reading (T=0) was made approximately 1-2 min after addition of the substrate solution, employing excitation at 485 nm and emission at 530 nm, to determine the background fluorescence of the control sample. After the 3 h incubation, the samples were read for fluorescence as above (T=3 h).
(§4) The Relative Fluorescence Unit values (RFU) were used to calculate the sample readings as follows: RFU(T=3h)−Control RFU (T=0)=Net RFU(T=3h)
(§5) The EC50 (nM) was determined by a sigmoidal dose-response calculation (Prism 2.0, GraphPad Software Inc.).

The subject of the next assay is PC-3 cells. The assay is described as follows: Cell cycle arrest by flow cytometry (propidium iodide), PC-3. The assay is classed as cell-based. Conditions: 1 μM, 18 h. The procedure:
(§6) T47D, ZR-75-1 breast cancer cell lines and PC-3, an androgen-independent prostate cancer cell line were maintained and harvested as described in Example 148. Jurkat T leukemia cells were grown in RPMI 1640 media (Life Technologies, Inc.) +10% FCS (Sigma Chemical Company) in a 5% CO2-95% humidity incubator at 37° C., and maintained at a cell density between 4 and 8×10^5 cells/ml. 1×10^6 cells were induced with 1 μM of 2-amino-3-cyano-7-dimethylamino-4-(3-methoxy-4,5-methylenedioxyphenyl)-4H-chromene or 2-amino-3-cyano-7-dimethylamino-4-(3,4-methylenedioxyphenyl)-4H-chromene for 18 h at 37° C. As a control, cells were also incubated with DMSO. Cells were harvested at 1200 rpm and washed twice with 5 mM EDTA/PBS. Cells were then resuspended in 300 μl EDTA/PBS and […] of 100% ethanol, vortexed and incubated at room temperature for 1 h. Samples were spun down at 12000 rpm for 5 min and the supernatant was removed. A solution containing 100 μg/ml of propidium iodide and 1 mg/ml of RNAse A (fresh) was added to the samples and incubated for 1 h at room temperature. Samples were then transferred to 12×75 mm polystyrene tubes and analysed on a flow cytometer. All flow cytometry analyses were performed on FACScalibur (Becton Dickinson) using Cell Quest analysis software.
(In flow cytometry, cells or beads pass a laser one at a time.)

The subject of assay [4] is ZR-75-1 cells. Put plainly: Caspase cascade activation assay (N-(Ac-DEVD)-N'-ethoxycarbonyl-R110 fluorogenic substrate) in ZR-75-1. It is filed as cell-based, Human. As to conditions: 24 h incubation. The procedure: as §3, §4, §5
A further assay deals with Jurkat T leukemia cells. Put plainly: Cell cycle arrest by flow cytometry (propidium iodide), Jurkat. It is filed as cell-based. As to conditions: 1 μM, 18 h. On the procedure: as §6
The subject of a further assay is T47D cells. Put plainly: Cell cycle arrest by flow cytometry (propidium iodide), T47D. It is filed as cell-based, Human. Conditions: 1 μM, 18 h. The procedure: as §6
Assay [5] deals with poly(ADP)ribose polymerase (PARP) cleavage in Jurkat cells. Put plainly: PARP cleavage in Jurkat cells (western blot). It is filed as cell-based. On the procedure: A wide range of natural substrates are cleaved by the caspases during apoptosis. One of these is poly(ADP)ribose polymerase (PARP), an enzyme important in genome surveillance. The ability of 2-amino-3-cyano-7-dimethylamino-4-(3-methoxy-4,5-methylenedioxyphenyl)-4H-chromene to induce PARP cleavage was tested by treating Jurkat cells with the compound at a concentration of 2.5 μM for 5, 15 and 30 h. Control cultures were treated with DMSO vehicle or staurosporine, a known apoptosis inducer.
Background: In western blotting, separated proteins are transferred to a membrane and probed.

Assay [6] concerns Jurkat cells. The assay is described as follows: Mitotic arrest in Jurkat cells (mitotic figures, Syto 16). The assay is classed as cell-based. As to conditions: 6 h. The procedure:
Jurkat cells were incubated with a range of concentrations of 2-amino-3-cyano-7-dimethylamino-4-(3-methoxy-4,5-methylenedioxyphenyl)-4H-chromene (0.02 μM to 5 μM) for 6 h under normal growth conditions; control cultures were treated with DMSO vehicle. The cells were then treated for 20 min. with 800 nM Syto 16. Cytospin preparations were then prepared and the samples were viewed by fluorescent microscopy using a fluorescein filter set. For each concentration of test compound, the number of mitotic figures were counted and expressed as a percentage of the total number of cells. Three fields from each condition were evaluated and the mean and SEM were calculated and plotted as a function of drug concentration (FIG. 3).

For assay [7], the system named is Jurkat cells. The assay is described as follows: Nuclear fragmentation in Jurkat cells (Syto16 staining). The assay is classed as cell-based. As to conditions: 100 nM or higher, 24 h. On the procedure:
The ability of 2-amino-3-cyano-7-dimethylamino-4-(3-methoxy-4,5-methylenedioxyphenyl)-4H-chromene to induce nuclear fragmentation was tested by treatment of Jurkat cells with the test compound followed by staining of the nucleus with Syto16, a fluorescent DNA dye. The nuclei of Jurkat cells treated with DMSO vehicle are round with dispersed chromatin that is moderately stained with Syto16 (FIG. 1A).

Setting [8] is: ratio of net RFU of test compound to control.

“Also recorded” adds a separate entry of the source.

The term GI50 denotes the concentration at which growth is held to half of that of the control. A word on the EC50: it is the concentration that produces a half-maximal response. As for `COc1cc(C2C(C#N)=C(N)Oc3cc(N(C)C)ccc32)cc2c1OCO2` (stereo not shown) [Example 19, 2-Amino-3-cyano-7-dimethylamino-4-(3-methoxy-4,5-methylenedioxyphenyl)-4H-chromene], the values for the GI50 in the assay on T-47D cells [1] and in the assay with ZR-75-1 cells [2] were 3 nM and 500 nM, respectively. In addition, the EC50 in the assay with T-47D cells [3] (Homo sapiens, T47D, 0.016 to 1 μM final, read-out: Caspase potency EC50) is 87 nM; in the assay with ZR-75-1 cells [4] (Homo sapiens, 0.016 to 1 μM final, read-out: Caspase potency EC50) it was 38 nM; in the assay on Jurkat cells [6] (Homo sapiens, 0.02 μM to 5 μM), approximately 125 nM. The figures for the “Caspase activity Ratio” value in the assay with T-47D cells [3] (setting [8]) and in the assay on ZR-75-1 cells [4] (setting [8]) were 5.5 and 6.3, respectively. In addition, the Cell cycle arrest entry was “progression and arrest in G2/M; also recorded: induce cell cycle arrest” in the assay on PC-3 cells; “progression and arrest in S/G2/M; also recorded: induces cell cycle arrest” with Jurkat T leukemia cells; “progression and arrest in G2/M; also recorded: induce cell cycle arrest” with T47D cells. The “PARP cleavage at 30 h” value in assay [5] is on record as “virtually all of PARP was converted into its cleaved form”. In addition, the “Percent mitotic arrest versus drug concentration” value in the assay with Jurkat cells [6] (up to 1.0 μM (FIG. 3)) is on record as “increasing percent mitotic arrest with increasing drug concentration”. For the same compound, the Nuclear fragmentation result in the assay with Jurkat cells [7] was “shrunken and fragmented nuclei”.
